Patent US8710233B2 (Gruenenthal GmbH, priority 2005, dated 2014)

Tests used:
[1] = tested on: capsaicin induced hypothermie; assay: Hypothermie assay in the mouse (capsaicin induced hypothermie); assay type: in vivo; details: mouse, read-out: inhibition hypothermie (n = 5); for inhibition in vivo at 0.1 mg/kg: 0.1 mg/kg body weight po
[2] = molecular target: T1, vanilloid receptor (VR1) (Homo sapiens, UniProt Q8NER1); assay: FLIPR Ca2+ influx assay on CHO K1 cells transfected with the VR1 gene (pharmacological method II); assay type: cell-based; details: table 4; capsaicin; read-out: Ki (human) Cap.
T1 construct: expressed in transfected cells; host or cells: CHO K1 cells (ECACC), stably transfected

[3] = molecular target: VR1/TRPV1 receptor (Homo sapiens, UniProt Q8NER1); assay: IC50 (human) after pH stimulus; assay type: cell-based; details: table 4
VR1/TRPV1 receptor, sequence (Q8NER1 whole entry): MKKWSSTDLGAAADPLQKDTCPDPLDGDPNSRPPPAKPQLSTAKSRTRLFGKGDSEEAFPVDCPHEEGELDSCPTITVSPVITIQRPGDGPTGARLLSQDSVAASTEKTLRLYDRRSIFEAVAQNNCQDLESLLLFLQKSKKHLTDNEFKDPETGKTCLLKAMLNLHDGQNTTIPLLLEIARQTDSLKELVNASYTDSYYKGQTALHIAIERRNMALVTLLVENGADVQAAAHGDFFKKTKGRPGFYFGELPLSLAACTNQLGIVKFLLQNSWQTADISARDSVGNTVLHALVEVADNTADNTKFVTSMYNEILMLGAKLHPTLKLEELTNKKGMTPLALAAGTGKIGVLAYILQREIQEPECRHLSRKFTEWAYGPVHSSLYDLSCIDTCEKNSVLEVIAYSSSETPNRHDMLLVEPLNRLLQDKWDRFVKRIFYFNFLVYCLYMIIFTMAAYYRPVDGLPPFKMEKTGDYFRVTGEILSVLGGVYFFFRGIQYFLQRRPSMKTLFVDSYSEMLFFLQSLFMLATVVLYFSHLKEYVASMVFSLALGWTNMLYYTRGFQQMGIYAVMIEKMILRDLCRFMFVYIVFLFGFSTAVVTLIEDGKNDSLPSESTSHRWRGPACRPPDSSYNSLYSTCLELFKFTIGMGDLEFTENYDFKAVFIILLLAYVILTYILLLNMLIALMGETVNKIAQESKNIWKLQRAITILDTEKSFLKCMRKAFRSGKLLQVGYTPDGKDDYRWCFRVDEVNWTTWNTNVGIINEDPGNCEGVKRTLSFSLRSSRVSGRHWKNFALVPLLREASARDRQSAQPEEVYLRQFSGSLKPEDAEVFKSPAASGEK

T1 sequence (Q8NER1 whole entry): as above

Ki [2] | IC50 [3] | SMILES | inhibition in vivo at 0.1 mg/kg [1] | inhibition in vivo at 0.3 mg/kg ([1]; 0.3 mg/kg body weight po)
1.5 nM | 85.3 nM | CC(C(=O)NCc1ccc(C(C)(C)C)nc1OC1CCCC1)c1ccc(NS(C)(=O)=O)c(F)c1 (stereo not drawn) [Example 234, N-(6-tert-butyl-2-cyclopentyloxy-pyridin-3-ylmethyl)-2-(3-fluoro-4-methylsulfonamido-phenyl)-propionamide] | 19% | 
14 nM | 140 nM | Cc1ccc(Cl)cc1Nc1nc(C(F)(F)F)ccc1CNC(=O)C(C)c1ccc(NS(C)(=O)=O)c(F)c1 (stereo not drawn) [Example 136, N-[2-(5-chloro-2-methyl-phenylamino)-6-trifluoromethyl-pyridin-3-ylmethyl]-2-(3-fluoro-4-methylsulfonamido-phenyl)-propionamide] |  | 43%
0.9 nM | 23.8 nM | CC(C(=O)NCc1ccc(C(F)(F)F)nc1OCCC(C)(C)C)c1ccc(NS(C)(=O)=O)c(F)c1 (stereo not drawn) [Example 125] | 5% | 
